Experimental data from PMC6017909, “Synthesis and Evaluation of the Tumor Cell Growth Inhibitory Potential of New Putative HSP90 Inhibitors” (Molecules : A Journal of Synthetic Chemistry and Natural …, 2018).

Columns and labels:
HSP90 = target: T1, HSP90 (Homo sapiens, UniProt P07900); test: HSP90 binding, fluorescence polarization with GM-FITC; conditions: displacement of GM-FITC 5 nM, 30 nM HSP90, 4 °C, 4 h; read-out: Binding HSP90 (FP) IC50
T1 construct: purchased Stressgen SPP-776
Method: GM-FITC Geldanamycin-fluorescein-5-isothiocyanate (working concentration: 1–400 nM), supplied by Invivogen (06C23-MT, San Diego, CA, USA), was previously dissolved in DMSO to obtain 10 mM stock solutions and kept at −20 °C until use. […] The compounds were previously dissolved in DMSO to obtain stock solutions and kept at −20 °C. The day of experiment, the compounds were prepared by serial dilutions in assay buffer (HFB) containing 20 mM HEPES (K) pH 7.3, 50 mM KCl, 5 mM MgCl2, 20 mM Na2MoO4 and 0.01% NP40. Before each use, 0.1 mg/mL Bovine Gamma globulin and 2 mM DTT were freshly added. […] The plate was mixed on a shaker at 4 °C for 4 h, and the FP values in mP (millipolarization units) were recorded. […] Curve fitting was performed using Prism GraphPad software program (GraphPad software, Inc., San Diego, CA, USA).

NCI-H460 = test: Cell-counting assay, 72-h drug exposure; type: cell-based; conditions: Homo sapiens, read-out: Cell Growth Inhibitory Activity NCI-H460 IC50 72 h
From the text: (§1) For the cytotoxic activity studies and determination of GI50 concentrations in three different tumor cell lines, the cell culture conditions are described in Section 3.5. For the studies on the effect on % viable cells, cell cycle, cellular proliferation, and apoptosis, culture conditions are described in Section 3.6.1. For the remaining studies, the epithelial carcinoma cell line A431 and the non-small cell lung carcinoma cell line NCI-H460 were routinely grown in RPMI 1640 (Lonza, Vierviers, Belgium), supplemented with 10% (v/v) heat-inactivated fetal bovine serum (FBS, GIBCO, Invitrogen, Paisley, UK). The human peritoneal mesothelioma cell line STO was kindly provided by Dr. N. Zaffaroni (IRCCS Istituto Nazionale Tumori, Milan, Italy) and grown in 50/50 DMEM-Ham’s F12 medium (Lonza, Vierviers, Belgium), supplemented with 10% (v/v) heat-inactivated foetal bovine serum and 2 mM L-glutamine (L-Gln). All cell lines were maintained at 37 °C in a 5%/95% CO2/air atmosphere. All the compounds tested were freshly prepared by dissolving powder in dimethylsulfoxide (DMSO) (BDH Prolabo, Milan, Italy) and following dilution in culture medium. Cells were incubated with drugs for 48 h or 72 h (unless otherwise stated) at 37 °C in culture medium supplemented with 10% (v/v) heat-inactivated FBS; drug concentrations used for each assay and duration of treatments are reported in Legends to Figures.
(§2) Cellular sensitivity to drugs was evaluated by a cell-counting assay after 72-h drug exposure. Cells in the logarithmic phase of growth were seeded in duplicate into 6-well plates. Twenty-four hours after seeding, the drug was added to the medium. Cells were harvested 72 h after drug exposure and counted with a cell counter.

A431 = test: Cell-counting assay, 72-h drug exposure; type: cell-based; conditions: Homo sapiens, A-431, read-out: Cell Growth Inhibitory Activity A431 IC50 72 h
From the text: as §1, §2

STO = test: Cell-counting assay, 72-h drug exposure; type: cell-based; conditions: Homo sapiens, read-out: Cell Growth Inhibitory Activity STO IC50 72 h
From the text: as §1, §2

IC50 (HSP90) [µM]	IC50 (NCI-H460) [µM]	IC50 (A431) [µM]	Structure (SMILES)	IC50 (STO) [µM]
–	3.2 ± 0.5	3.1 ± 0.5	O=C1c2ccccc2C(=O)c2c[n+](Cc3ccc(F)cc3F)ccc21 [Compound 2b, 2-(2,4-Difluoro-benzyl)-5,10-dioxo-5,10-dihydro-benzo[g]isoquinolinium bromide]	–
–	–	0.46 ± 0.8	CC(C)(C)c1ccc(C[n+]2ccc3c(c2)C(=O)c2ccccc2C3=O)cc1 [Compound 2c, 2-(4-tert-Butyl-benzyl)-5,10-dioxo-5,10-dihydro-benzo[g]isoquinolinium bromide]	–
–	0.7 ± 0.01	0.2 ± 0.01	O=C1c2ccccc2C(=O)c2c[n+](Cc3ccccc3)ccc21 [Compound 2a, 2-Benzyl-5,10-dioxo-5,10-dihydro-benzo[g]isoquinolinium bromide]	–

The remaining lines, values behind:

Structure (SMILES)	IC50 (HSP90) [µM]	IC50 (NCI-H460) [µM]	IC50 (A431) [µM]	IC50 (STO) [µM]
O=c1c2ccccc2sc2cnccc12 [Compound 7]	2.47 ± 0.09	> 50	46.9	46.9
O=c1c2ccccc2oc2cnccc12 [Compound 4, 5H-chromeno[2,3-c]pyridin-5-one]	> 100	> 50	> 50	> 50
O=c1c2ccccc2oc2c1ccc[n+]2Cc1ccccc1 [Compound 10, 1-Benzyl-10-oxo-10H-9-oxa-1-azonia-anthracene bromide]	> 100	> 50	> 50	> 50
C=CCNC1=C2C[C@@H](C)C[C@H](OC)[C@H](O)[C@@H](C)/C=C(\C)[C@H](OC(N)=O)[C@@H](OC)/C=C\C=C(/C)C(=O)NC(=CC1=O)C2=O [Compound 17-AAG, 17-N-allylamino-17-demethoxygeldanamycin, reference compound]	–	0.01 ± 0.002	0.069 ± 0.005	–
